According to patent US20220386606A1, “SPECIFICALLY SUBSTITUTED 3-PHENYL-5-SPIROCYCLOPENTYL-3-PYRROLIN-2-ONES AND THEIR USE AS HERBICIDES” (Bayer Aktiengesellschaft, priority 2019, published 2022):

Key:
POLCO = assay: Pre-emergence herbicidal action against POLCO; type: in vivo, Polygonum convolvulus; conditions: 320 g/ha
From the text: (§1) Seeds of monocotyledonous and dicotyledonous weed plants and crop plants are laid out in sandy loam soil in wood-fiber pots and covered with soil. The compounds of the invention, formulated in the form of wettable powders (WP) or as emulsion concentrates (EC), are then applied to the surface of the covering soil as aqueous suspension or emulsion at a water application rate equating to 600 to 800 L/ha with addition of 0.2% wetting agent.
(§2) After the treatment, the pots are placed in a greenhouse and kept under good growth conditions for the trial plants. The damage to the test plants is scored visually after a test period of 3 weeks by comparison with untreated controls (herbicidal activity in percent (%): 100% activity=the plants have died, 0% activity=like control plants).

ALOMY [1] = assay: Post-emergence herbicidal action against ALOMY; type: in vivo, Alopecurus myosuroides; conditions: 80 g/ha, visual assessment after about 3 weeks
Summary of the method: (§3)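 Visual scoring about 3 weeks after treatment gave % herbicidal action relative to untreated plants (0% = control-like, 100% = plants dead). Compounds, as WP or EC with 0.2% wetting agent, were sprayed onto green parts at 600–800 l/ha. Plants had reached the one-leaf stage, 2–3 weeks after sowing in sandy loam under greenhouse conditions.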

DIGSA [2] = assay: Pre-emergence herbicidal action against DIGSA; type: in vivo, Digitaria sanguinalis; conditions: 320 g/ha, scored visually after 3 weeks vs untreated controls
Summary of the method: (§4)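 Seeds sown in sandy loam in wood-fiber pots and covered with soil; WP or EC formulations applied to covering soil surface as aqueous suspension/emulsion at 600 to 800 L/ha water plus 0.2% wetting agent. Greenhouse-grown; damage scored visually after 3 weeks versus untreated controls (100% = dead, 0% = like control).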

AVEFA [3] = assay: Pre-emergence herbicidal action against AVEFA; type: in vivo, Avena fatua; conditions: 320 g/ha, scored visually after 3 weeks vs untreated controls
Summary of the method: as §4

LOLRI [4] = assay: Pre-emergence herbicidal action against LOLRI (Table 8, titled post-emergence at 320 g/ha); type: in vivo, Lolium rigidum; conditions: table stands in the pre-emergence section
Summary of the method: as §4

ALOMY [5] = assay: Pre-emergence herbicidal action against ALOMY; type: in vivo, Alopecurus myosuroides; conditions: 320 g/ha, scored visually after 3 weeks vs untreated controls
Summary of the method: as §4

SETVI [6] = assay: Pre-emergence herbicidal action against SETVI; type: in vivo, Setaria viridis; conditions: 320 g/ha, scored visually after 3 weeks vs untreated controls
Summary of the method: as §4

DIGSA [7] = assay: Post-emergence herbicidal action against DIGSA; type: in vivo, Digitaria sanguinalis; conditions: 80 g/ha, visual assessment about 3 weeks after treatment vs untreated controls
Summary of the method: as §3

LOLRI [8] = assay: Post-emergence herbicidal action against LOLRI; type: in vivo, Lolium rigidum; conditions: 80 g/ha, visual assessment about 3 weeks after treatment vs untreated controls
Summary of the method: as §3

SETVI [9] = assay: Post-emergence herbicidal action against SETVI; type: in vivo, Setaria viridis; conditions: 80 g/ha, visual assessment about 3 weeks after treatment vs untreated controls
Summary of the method: as §3

VIOTR = assay: Pre-emergence herbicidal action against VIOTR; type: in vivo, Viola tricolor; conditions: 320 g/ha
Summary of the method: as §4

ECHCG [10] = assay: Post-emergence herbicidal action against ECHCG; type: in vivo, Echinochloa crus-galli; conditions: 80 g/ha, visual assessment about 3 weeks after treatment vs untreated controls
Summary of the method: as §3

ECHCG [11] = assay: Pre-emergence herbicidal action against ECHCG; type: in vivo, Echinochloa crus-galli; conditions: 320 g/ha, scored visually after 3 weeks vs untreated controls
Summary of the method: as §4

AVEFA [12] = assay: Post-emergence herbicidal action against AVEFA; type: in vivo, Avena fatua; conditions: 80 g/ha, visual assessment after about 3 weeks
Summary of the method: as §3

VERPE = assay: Pre-emergence herbicidal action against VERPE; type: in vivo, Veronica persica; conditions: 320 g/ha
Summary of the method: as §4

ABUTH = assay: Post-emergence herbicidal action against ABUTH; type: in vivo, Abutylon threophrasti; conditions: 80 g/ha, visual assessment about 3 weeks after treatment vs untreated controls
Method: Seeds of monocotyledonous and dicotyledonous weed and crop plants are laid out in sandy loam soil in wood-fiber pots, covered with soil and cultivated in a greenhouse under good growth conditions. 2 to 3 weeks after sowing, the test plants are treated at the one-leaf stage. The compounds of the invention, formulated in the form of wettable powders (WP) or as emulsion concentrates (EC), are then sprayed onto the green parts of the plants as aqueous suspension or emulsion at a water application rate equating to 600 to 800 l/ha with addition of 0.2% wetting agent. After the test plants have been left to stand in the greenhouse under optimal growth conditions for about 3 weeks, the action of the preparations is assessed visually in comparison to untreated controls (herbicidal action in percent (%): 100% activity=the plants have died, 0% activity=like control plants).

MATIN = assay: Pre-emergence herbicidal action against MATIN; type: in vivo; conditions: 320 g/ha
From the text: as §1, §2

AMARE = assay: Pre-emergence herbicidal action against AMARE; type: in vivo, Amaranthus retroflexus; conditions: 320 g/ha
Summary of the method: as §4

Structure (SMILES) | Pre-emergence action against POLCO in % (POLCO) [%] | Post-emergence action against ALOMY in % (ALOMY [1]) [%] | Pre-emergence action against DIGSA in % (DIGSA [2]) [%] | Pre-emergence action against AVEFA in % (AVEFA [3]) [%] | Pre-emergence herbicidal action against LOLRI in % (LOLRI [4]) [%] | Pre-emergence action against ALOMY in % (ALOMY [5]) [%] | Pre-emergence action against SETVI in % (SETVI [6]) [%] | Post-emergence action against DIGSA in % (DIGSA [7]) [%] | Post-emergence action against LOLRI in % (LOLRI [8]) [%] | Post-emergence action against SETVI in % (SETVI [9]) [%] | Pre-emergence action against VIOTR in % (VIOTR) [%] | Post-emergence action against ECHCG in % (ECHCG [10]) [%] | Pre-emergence action against ECHCG in % (ECHCG [11]) [%] | Post-emergence action against AVEFA in % (AVEFA [12]) [%] | Pre-emergence action against VERPE in % (VERPE) [%] | Post-emergence action against ABUTH in % (ABUTH) [%] | Pre-emergence action against MATIN in % (MATIN) [%] | Pre-emergence action against AMARE in % (AMARE) [%]
CC#Cc1cc(Br)c(C2=C(OC(=O)OCC)C3(CCC(COCC)C3)NC2=O)c(OCC)c1 (stereo not drawn) [Example P-89] | 100 | 100 | 100 | 100 | 100 | 100 | 100 | 90 | 90 | 100 | 80 | 100 | 100 | – | – | – | – | –
CC#Cc1cc(F)c(C2=C(OC(=O)OCC)C3(CCC(COCC)C3)NC2=O)c(OC)c1 (stereo not drawn) [Example P-61] | – | 90 | 100 | 90 | 100 | 100 | 100 | 100 | 100 | 100 | – | 100 | 100 | 80 | 90 | 80 | – | –
CC#Cc1cc(C)c(C2=C(OC(=O)OCC)C3(CCC(COCC)C3)NC2=O)c(F)c1 (stereo not drawn) [Example P-53] | – | 100 | 100 | 90 | 100 | 100 | 100 | 100 | 100 | – | 80 | 100 | 100 | 90 | – | 80 | 90 | –
CC#Cc1cc(Br)c(C2=C(OC(=O)C(C)C)C3(CCC(COCC)C3)NC2=O)c(OC)c1 (stereo not drawn) [Example P-23] | – | 100 | 100 | 100 | 100 | 100 | 100 | 100 | 90 | 100 | 100 | 100 | 100 | – | 90 | 80 | – | 90
CC#Cc1cc(C)c(C2=C(OC(=O)OCC)C3(CCC(COCCOC)C3)NC2=O)c(Cl)c1 (stereo not drawn) [Example P-76] | 100 | 100 | 100 | 100 | 100 | 100 | 100 | 90 | 100 | 100 | 100 | 100 | 100 | 90 | 100 | – | – | 100
CC#Cc1cc(F)c(C2=C(O)C3(CCC(COCC)C3)NC2=O)c(OC)c1 (stereo not drawn) [Example I-42] | – | 90 | 100 | 90 | 100 | – | 100 | 100 | 90 | 100 | 80 | 100 | 80 | 90 | – | 80 | 80 | –
CC#Cc1cc(Br)c(C2=C(OC(=O)C(C)C)C3(CCC(COC)C3)NC2=O)c(OC)c1 (stereo not drawn) [Example P-04] | – | 100 | 100 | 100 | 100 | 100 | 100 | 100 | 100 | 100 | 100 | 100 | – | – | 90 | 80 | 90 | 80
CC#Cc1cc(Br)c(C2=C(O)C3(CCC(COC)C3)NC2=O)c(OCC)c1 (stereo not drawn) [Example I-69] | 100 | 100 | 100 | 90 | 100 | 100 | 100 | 90 | 100 | – | 90 | 100 | 100 | – | 80 | – | – | –
